Values quoted from earlier work as cited in patent publication US9352019B2, “Using heat shock proteins to improve the therapeutic benefit of a non-vaccine treatment modality” (University of Connecticut Health Center, priority 2002, dated 2016).
Where a name gives a salt, the structure may show the parent alone.

System: CML
Conditions: Gleevec alone; Druker et al., 2002

## Cc1ccc(NC(=O)c2ccc(CN3CCN(C)CC3)cc2)cc1Nc1nccc(-c2cccnc2)n1 [Gleevec™, imatinib mesylate]
  patients achieving responses using these same criteria: less than 10% of patients
